{"source": "patent US20190008797A1", "about": "“ESTROGEN RECEPTOR ALPHA COLIGANDS, AND METHODS OF USE THEREOF” (priority 2016, published 2019)", "key": {"MCF-7 cells": {"tested_on": "MCF-7 cells", "assay": "MCF-7 cell proliferation (cell counting)", "details": "5 days"}, "mouse uterus [1]": {"tested_on": "mouse uterus", "assay": "Ovariectomized (OVX) mouse model, osmotic pump", "assay_type": "in vivo", "details": "OVX mice", "experimental": "(§1) 8 week old C57b1/6J female ovariectomized or intact mice were purchased from Jackson Laboratories, Sacramento, Calif. Mice were housed and maintained according to OLAC standard procedures in the NAF facility at UC Berkeley, Calif. All mice were fed a soy-free chow diet 2916.15 (Harlan Laboratories, Livermore, Calif.) starting one week before osmotic pump implantation or 2′, 3′, 4′-THC injection. Pumps Model 2006 were purchased from Alzet and filled with vehicle, 1 μg […], 2 mg of 2′, 3′, 4′-THC or the combination of 2′, 3′, 4′-THC and estradiol. All drugs were dissolved in sterile vehicle consisting of 50% dimethylsulfoxide (DMSO), 25% ETOH and 25% deionized water. Pumps were handled with sterile gloves and filled using a 27 gauge filling tube and 1 mL syringe. All pumps were placed in 1X PBS in 15 mL sterile conical tubes and incubated overnight at 37° . Pumps were surgically implanted into 8 week old C57b1/6J female ovariectomized mice (Jackson Laboratory, Sacramento, Calif.) posterior to the scapula and left for a duration of 4 weeks. Intact mice were injected intraperitoneal with 2′, 3′, 4′-THC every day for 3 weeks. Mice were weighed once a week for the duration of the experiment. The intraperitoneal gonadal fat was removed and weighed. Uterine tissue was collected, fluid drained and then weighed.\nTissues were dissected and immediately frozen in liquid nitrogen. Before RNA isolation, tissues were homogenized in PureZOL™ using the MP FastPrep™-24 for 40 seconds.\nUterine Tissue Slide Preparation Uterine tissue was removed and trimmed of excess adipose tissue. Tissues were fixed in formalin for 24 hours then transferred to 50% ETOH for 1 hour followed by 70% ethanol (ETOH) for another hour. After fixation tissues were sent to Histopathology Reference Laboratory, Hercules Calif. where they were paraffin embedded, sectioned and stained with hematoxylin and eosin for morphological exam\nFIGS. 5a-5h. 2′, 3′, 4′-THC acts as antagonist in the mouse uterus. Uterine weights of intact (FIG. 5a) and OVX (FIG. 5b) mice. […] (FIG. 5h) Total body weight of OVX mice after 4 week treatment. Error bars are ±SEM."}, "ERα [2]": {"target": "T1, ERα (Homo sapiens, UniProt P03372)", "T1 sequence (P03372 whole entry)": "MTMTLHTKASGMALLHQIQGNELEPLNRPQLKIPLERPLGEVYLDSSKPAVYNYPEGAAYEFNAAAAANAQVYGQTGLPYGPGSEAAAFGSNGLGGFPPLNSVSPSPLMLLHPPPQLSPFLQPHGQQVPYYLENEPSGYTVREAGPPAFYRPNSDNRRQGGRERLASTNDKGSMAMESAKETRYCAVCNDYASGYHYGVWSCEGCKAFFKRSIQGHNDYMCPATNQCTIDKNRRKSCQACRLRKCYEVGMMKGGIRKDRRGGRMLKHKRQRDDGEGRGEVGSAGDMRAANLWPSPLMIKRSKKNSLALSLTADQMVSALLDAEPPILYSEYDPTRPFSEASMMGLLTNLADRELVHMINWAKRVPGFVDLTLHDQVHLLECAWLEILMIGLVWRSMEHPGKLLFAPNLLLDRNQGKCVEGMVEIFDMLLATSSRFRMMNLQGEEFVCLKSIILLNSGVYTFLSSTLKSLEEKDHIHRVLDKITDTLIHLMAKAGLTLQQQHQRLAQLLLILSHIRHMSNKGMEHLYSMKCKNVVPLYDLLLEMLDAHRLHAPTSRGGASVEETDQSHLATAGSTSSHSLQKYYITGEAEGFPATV", "assay": "NKG2E-TK-Luc transfection assay, U2OS cells cotransfected with ERα", "assay_type": "cell-based", "set-up": "expressed in transfected cells; host or cells: U2OS", "experimental": "FIG. 7a-7e. […] (C) U2OS cells cotransfected with GRE-TK-Luc and human (h) GR and treated with 10 nM of dexamethasone (Dex) and 5 μM of 2′, 3′, 4′-THC alone or in combination for 24 hours. (D) U2OS cells cotransfected with human tyrosine aminotransferase (TATS)-luciferase reporter gene and hAR and treated with 10 nM of dihydrotestosterone (DHT) and 5 μM of 2′, 3′, 4′-THC alone or in combination for 24 hours. (E) U2OS cells cotransfected with TAT3-luciferase reporter gene and hPR-B and treated with 10 nM of progesterone (Prog) and 5 μM of 2′, 3′, 4′-THC alone or in combination for 24 hours. After transfection, luciferase activities were measured as described in the Methods. RLU is relative light units and the data shown are mean±SEM.\n(FIGS. 6a, 6b) Gene expression of (FIG. 6a) KRT73 and (FIG. 6b) NKG2E in U2OS-ERα cells treated with 10 nM estradiol, 5 μM 2′, 3′, 4′-THC, 1μM ICI alone or in combination for 24 hours. […] Error bars are ±SEM. […] After transfection, luciferase activities were measured as described in the Methods. RLU is relative light units and the data shown are mean ±SEM. (FIG. 6c). […] After transfection, luciferase activities were measured as described in the Methods. RLU is relative light units and the data shown are mean ±SEM (FIG. 6d)."}, "ERα [3]": {"target": "T1, ERα", "assay": "ChIP of ERα recruitment in MCF-7 cells", "assay_type": "cell-based", "set-up": "expressed in transfected cells", "details": "5 μM + 10 nM E2, 1 hour"}, "mouse uterus [4]": {"tested_on": "mouse uterus", "assay": "Uterine weight in intact female mice", "assay_type": "in vivo", "details": "intact C57BL/6 female mice, daily intraperitoneal injection", "experimental": "as §1\nFIGS. 5a-5h. 2′, 3′, 4′-THC acts as antagonist in the mouse uterus. […]"}, "[5]": {"target": "T2, human glucocorticoid receptor (Homo sapiens, UniProt P04150)", "T2 construct": "expressed in transfected cells; host or cells: U2OS", "T2 sequence (P04150 1-777)": "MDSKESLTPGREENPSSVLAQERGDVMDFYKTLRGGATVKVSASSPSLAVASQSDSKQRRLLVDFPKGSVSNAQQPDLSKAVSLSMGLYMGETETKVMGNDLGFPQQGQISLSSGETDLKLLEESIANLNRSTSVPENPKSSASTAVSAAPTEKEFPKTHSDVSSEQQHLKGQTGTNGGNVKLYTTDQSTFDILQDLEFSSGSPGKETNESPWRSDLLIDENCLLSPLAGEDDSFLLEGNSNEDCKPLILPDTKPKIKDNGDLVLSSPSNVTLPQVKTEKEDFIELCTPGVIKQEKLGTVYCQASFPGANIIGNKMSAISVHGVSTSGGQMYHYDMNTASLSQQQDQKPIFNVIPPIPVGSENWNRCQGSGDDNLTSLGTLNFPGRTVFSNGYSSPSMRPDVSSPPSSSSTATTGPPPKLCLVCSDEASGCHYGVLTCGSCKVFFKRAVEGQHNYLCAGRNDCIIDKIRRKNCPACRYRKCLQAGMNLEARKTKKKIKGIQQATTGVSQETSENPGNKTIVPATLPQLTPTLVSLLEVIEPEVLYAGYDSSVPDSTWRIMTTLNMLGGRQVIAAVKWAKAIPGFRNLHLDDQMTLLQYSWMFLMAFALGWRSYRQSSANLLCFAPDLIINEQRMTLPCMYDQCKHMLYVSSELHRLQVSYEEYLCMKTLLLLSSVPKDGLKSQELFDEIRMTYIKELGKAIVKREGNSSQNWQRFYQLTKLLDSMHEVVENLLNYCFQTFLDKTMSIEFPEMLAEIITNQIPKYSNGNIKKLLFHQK", "assay": "GRE-TK-Luc reporter, U2OS cells cotransfected with hGR", "assay_type": "cell-based", "details": "5 μM + 10 nM dexamethasone, 24 hours"}}}
{"smiles": "O=C(/C=C/c1ccccc1)c1ccc(O)c(O)c1O", "note": "[2′, 3′, 4′-THC, 2′, 3′, 4′-trihydroxychalcone]", "values": [{"measurement": "effect on proliferation induced by E2", "setting": "MCF-7 cells; 1, 5 and 10 μM, dose-dependent", "result": "blocked"}, {"measurement": "MCF-7 cell proliferation, compound alone", "setting": "MCF-7 cells", "result": "no effect"}, {"measurement": "H & E staining of uterus, effect on E2 response", "setting": "mouse uterus [1]; combination with E2, 4 weeks", "result": "inhibited the proliferative response"}, {"measurement": "effect on E2-induced increase in uterine weight", "setting": "mouse uterus [1]; combination with E2, 4 weeks", "result": "blocked"}, {"measurement": "effect on E2-induced increased uterine mRNA for LCN2", "setting": "mouse uterus [1]; combination with E2, 4 weeks", "result": "antagonist effect"}, {"measurement": "effect on E2-induced increased uterine mRNA for LTF", "setting": "mouse uterus [1]; combination with E2, 4 weeks", "result": "antagonist effect"}, {"measurement": "effect on E2-induced increased uterine mRNA for SA100A9", "setting": "mouse uterus [1]; combination with E2, 4 weeks", "result": "antagonist effect"}, {"measurement": "effect on E2 decrease of gonadal adipose tissue fat", "setting": "mouse uterus [1]; combination with E2, 4 weeks", "result": "not blocked"}, {"measurement": "uterine size / uterine weight, compound alone", "setting": "mouse uterus [1]; osmotic pump, 4 weeks", "result": "did not increase"}, {"measurement": "response of NKG2E-TK-Luc with E2", "setting": "ERα [2]; 1 μM 2′,3′,4′-THC", "result": "synergistic response"}, {"measurement": "response of NKG2E-TK-Luc with E2", "setting": "ERα [2]; 5 μM 2′,3′,4′-THC", "result": "maximal response"}, {"measurement": "synergistic activation of NKG2E-TK-Luc in combination with E2, tamoxifen or raloxifene", "setting": "ERα [2]; 5 μM, 10 nM E2, 1 μM tamoxifen, 1 μM raloxifene, 24 hours", "result": "synergistic activation only with E2"}, {"measurement": "activation of NKG2E-TK-Luc, compound alone", "setting": "ERα [2]; 24 hours", "result": "No activation"}, {"measurement": "effect on E2 induced ERα binding to the c-MYC enhancer", "setting": "ERα [3]", "result": "inhibited"}, {"measurement": "effect on recruitment of ERα to the KRT19 ERE", "setting": "ERα [3]", "result": "did not have a significant effect"}, {"measurement": "reduction of uterine growth compared to the control mice", "setting": "mouse uterus [4]", "result": 50, "unit": "%"}, {"measurement": "synergy with receptor agonist", "setting": "[5]", "result": "no synergy"}]}
